Reference: patent publication US7449545B2, “Antimicrobial bolisin peptides” (IPF Pharmaceuticals GmbH, priority 2001, dated 2008)
Ends that are not written are not given here.

How the values were obtained:
Type in all cases: cell-based
[1] = tested on: Candida albicans ATCC 10231; settings: for minimum inhibition concentration: ATCC 10231, 2 h; for peptide concentration giving 75% inhibition of growth (value in parentheses): Mueller Hinton Broth, complete growth inhibition not achieved
From the text: (§1) The bolisin analogues of the present invention were examined for their suitability as antibiotic therapeutical agents by means of various biological tests. Thus, the chemically synthesized peptides were examined for their antimicrobial effectiveness against three Gram-positive and three Gram-negative bacterial strains as well as against a yeast.
(§2) The following microorganisms were used: • Gram-positive: Staphylococcus aureus ATCC 25923 • Enterococcus faecalis ATCC 51299 (vancomycin-resistant) • Streptococcus pneumoniae DSM 11865 (penicillin-resistant) • Gram-negative: Escherichia coli ATCC 25922 • Pseudomonas aeruginosa ATCC 9027 • Klebsiella pneumoniae ATCC 10031 • Yeast: Candida albicans ATCC 10231
(§3) The antibiotic activity of bolisin analogues was examined by determining the minimum inhibition concentration. […] This method allows to obtain a quantitative result about the antimicrobial potency of the peptides. These examinations were performed by analogy with the recommendations (M7-A3) edited by the NCCLS (National Committee for Clinical Laboratory Standards) by applying a dilution test in a liquid medium using chemically synthesized peptides (peptide sequences according to claims 1 to 3). Mueller Hinton Broth was used as the test medium according to the NCCLS recommendations unless indicated otherwise. […] The minimum inhibition concentrations are stated in [μg/ml].
(§4) A complete growth inhibition could not be achieved in this case. For determining the minimum inhibition concentration, the following microorganisms were used: • 1. Staphylococcus aureus ATCC 25923 • 2. Enterococcus faecalis ATCC 51299 (vancomycin-resistant) • 3. Streptococcus pneumoniae DSM 11865 (penicillin-resistant) • 4. Escherichia coli ATCC 25922 • 5. Pseudomonas aeruginosa ATCC 9027 • 6. Klebsiella pneumoniae ATCC 10031 • 7. Candida albicans ATCC 10231

[2] = tested on: Enterococcus faecalis ATCC 51299 (vancomycin-resistant); settings: ATCC 51299, 2 h
From the text: as §1, §2, §3, §4

[3] = tested on: Escherichia coli ATCC 25922; settings: ATCC 25922, 2 h
From the text: as §1, §2, §3, §4

[4] = tested on: Klebsiella pneumoniae ATCC 10031; settings: ATCC 10031, 2 h
From the text: as §1, §2, §3, §4

[5] = tested on: Staphylococcus aureus ATCC 25923; settings: ATCC 25923, 2 h
From the text: as §1, §2, §3, §4

[6] = tested on: Streptococcus pneumoniae DSM 11865 (penicillin-resistant); settings: DSM 11865, 2 h
From the text: as §1, §2, §3, §4

[7] = tested on: Pseudomonas aeruginosa ATCC 9027; settings: ATCC 9027, 2 h
[8] = tested on: Pseudomonas aeruginosa ATCC 9027; settings: Mueller Hinton Broth; complete growth inhibition not achieved
From the text: as §1, §2
The antibiotic activity of bolisin analogues was examined by determining the minimum inhibition concentration. The minimum inhibition concentration of an analogue designates the lowest peptide concentration which is required to inhibit the growth of microorganisms completely after an incubation time of 18±2 h. This method allows to obtain a quantitative result about the antimicrobial potency of the peptides. These examinations were performed by analogy with the recommendations (M7-A3) edited by the NCCLS (National Committee for Clinical Laboratory Standards) by applying a dilution test in a liquid medium using chemically synthesized peptides (peptide sequences according to claims 1 to 3). Mueller Hinton Broth was used as the test medium according to the NCCLS recommendations unless indicated otherwise. […] The minimum inhibition concentrations are stated in [μg/ml].
as §4

Substance	minimum inhibition concentration [1] [µg/mL]	minimum inhibition concentration [2] [µg/mL]	minimum inhibition concentration [3] [µg/mL]	minimum inhibition concentration [4] [µg/mL]	minimum inhibition concentration [5] [µg/mL]	minimum inhibition concentration [6] [µg/mL]	minimum inhibition concentration [7] [µg/mL]	peptide concentration giving 75% inhibition of growth (value in parentheses) [8]	peptide concentration giving 75% inhibition of growth (value in parentheses) [1]
YIVRKIRSARKRRKALK-OH [BOL-83, YIVRKIRSARKRRKALK]	300	>300	>300	>300	>300	>300	>300	–	–
YIVYKIRWAWKRKKALK-OH [BOL-61, YIVYKIRWAWKRKKALK]	9.375	25	25	18.75	37.5	25	300	75 µg/mL	–
YIVYKIRWARKRWKALK-OH [BOL-51, YIVYKIRWARKRWKALK]	–	25	50	18.75	37.5	12.5	300	25 µg/mL	(18.75) μg/ml
YIRYKRRSARKRRKALK-OH [BOL-18, YIRYKRRSARKRRKALK]	–	>300	18.75	37.5	18.75	>300	300	–	–
YIVYKIRWAWKRRKALK-OH [BOL-48, YIVYKIRWAWKRRKALK]	9.375	12.5	18.75	4.7	9.375	9.375	200	6.5 µg/mL	–
YIRYKIRSARKRRKALK-OH [BOL-17, YIRYKIRSARKRRKALK]	–	200	37.5	9.375	37.5	300	200	–	–
YIVYKIRSADKRSKALK-OH [Bolisin]	>300	>300	>300	>300	>300	>300	>300	–	–
YIVYKIRRAWKRSKALK-OH [BOL-53, YIVYKIRRAWKRSKALK]	–	200	200	100	150	200	–	(75) μg/ml	(37.5) μg/ml
YIVYKIRWAKKRKKALK-OH [BOL-59, YIVYKIRWAKKRKKALK]	–	50	150	18.75	50	50	–	(18.75) μg/ml	(9.375) μg/ml
